How the values were obtained:
Test in all cases: Test B pre-/postemergence plant response
Format in all cases: in vivo
[1] = system: Italian ryegrass (Lolium multiflorum)
How it was run: (§1)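 Steps: sow seed in loam–sand soil and spray preemergence, or grow plants in peat-based medium to 1–4 leaves (2–18 cm) and spray postemergence; formulation is non-phytotoxic solvent plus surfactant; hold in greenhouse 13–15 days; score visually vs controls, 0 = no effect, 100 = complete control.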

[2] = system: Surinam grass (Brachiaria decumbens)
How it was run: as §1

[3] = system: bermudagrass (Cynodon dactylon)
How it was run: as §1

[4] = system: blackgrass (Alopecurus myosuroides)
How it was run: as §1

[5] = system: cocklebur (Xanthium strumarium)
How it was run: as §1

[6] = system: downy bromegrass (Bromus tectorum)
How it was run: as §1

kochia (Kochia scoparia) = system: kochia (Kochia scoparia)
How it was run: as §1

[7] = system: large crabgrass (Digitaria sanguinalis)
How it was run: as §1

[8] = system: morningglory (Ipomoea coccinea)
How it was run: as §1

[9] = system: ragweed (common ragweed, Ambrosia elatior)
How it was run: as §1

[10] = system: wheat (Triticum aestivum)
How it was run: as §1

wild oat (Avena fatua) = system: wild oat (Avena fatua)
How it was run: as §1

[11] = system: woolly cupgrass (Eriochloa villosa)
How it was run: as §1

[12] = 31 g ai/ha, postemergence, scale 0 to 100, 0 is no effect, 100 is complete control
[13] = Postemergence, 62 g ai/ha, scale 0 (no effect) to 100 (complete control), 13 to 15 days
[14] = Postemergence, 125 g ai/ha, visual rating after 13 to 15 days, scale 0 (no effect) to 100 (complete control)
[15] = Postemergence, 250 g ai/ha, scale 0 to 100 (0 no effect, 100 complete control)
[16] = Preemergence, 31 g ai/ha, scale 0 to 100 (0 no effect, 100 complete control)
[17] = Preemergence, 62 g ai/ha, scale 0 to 100 (0 no effect, 100 complete control)
[18] = Preemergence, 125 g ai/ha, scale 0 to 100, 0 no effect, 100 complete control
[19] = 250 g ai/ha, Preemergence, 0 to 100 scale
[20] = 62 g ai/ha, postemergence, 0 is no effect, 100 is complete control, 13 to 15 days
[21] = Postemergence, 31 g ai/ha, 0 to 100 scale (0 no effect, 100 complete control)
[22] = Postemergence, 125 g ai/ha, scale 0 to 100 (0 no effect, 100 complete control)
[23] = Postemergence, 250 g ai/ha, scale 0 to 100 (0 no effect, 100 complete control), 13 to 15 days

Structure (SMILES): O=C1CCCC(O)=C1C(=O)c1cnc(-c2ccsc2)n(-c2ccccc2)c1=O [Compound 56]
- Plant response rating, Ryegrass, Italian [1, 12]: 0
- Plant response rating, Ryegrass, Italian [1, 13]: 0
- Plant response rating, Ryegrass, Italian [1, 14]: 50
- Plant response rating, Ryegrass, Italian [1, 15]: 50
- Plant response rating, Ryegrass, Italian [1, 16]: 0
- Plant response rating, Ryegrass, Italian [1, 17]: 0
- Plant response rating, Ryegrass, Italian [1, 18]: 0
- Plant response rating, Surinam Grass [2, 12]: 75
- Plant response rating, Surinam Grass [2, 13]: 80
- Plant response rating, Surinam Grass [2, 14]: 85
- Plant response rating, Surinam Grass [2, 15]: 100
- Plant response rating, Surinam Grass [2, 16]: 55
- Plant response rating, Surinam Grass [2, 17]: 95
- Plant response rating, Surinam Grass [2, 18]: 98
- Plant response rating, Bermudagrass [3, 12]: 75
- Plant response rating, Bermudagrass [3, 19]: 100
- Plant response rating, Bermudagrass [3, 13]: 85
- Plant response rating, Bermudagrass [3, 14]: 100
- Plant response rating, Bermudagrass [3, 15]: 100
- Plant response rating, Bermudagrass [3, 16]: 98
- Plant response rating, Bermudagrass [3, 17]: 100
- Plant response rating, Bermudagrass [3, 18]: 100
- Plant response rating, Blackgrass [4, 12]: 0
- Plant response rating, Blackgrass [4, 19]: 5
- Plant response rating, Blackgrass [4, 13]: 10
- Plant response rating, Blackgrass [4, 14]: 20
- Plant response rating, Blackgrass [4, 15]: 20
- Plant response rating, Blackgrass [4, 16]: 0
- Plant response rating, Blackgrass [4, 17]: 0
- Plant response rating, Blackgrass [4, 18]: 0
- Plant response rating, Cocklebur [5, 12]: 5
- Plant response rating, Cocklebur [5, 19]: 0
- Plant response rating, Cocklebur [5, 13]: 55
- Plant response rating, Cocklebur [5, 14]: 75
- Plant response rating, Cocklebur [5, 15]: 95
- Plant response rating, Cocklebur [5, 16]: 0
- Plant response rating, Cocklebur [5, 17]: 0
- Plant response rating, Cocklebur [5, 18]: 0
- Plant response rating, Bromegrass, Downy [6, 12]: 35
- Plant response rating, Bromegrass, Downy [6, 19]: 5
- Plant response rating, Bromegrass, Downy [6, 13]: 45
- Plant response rating, Bromegrass, Downy [6, 14]: 50
- Plant response rating, Bromegrass, Downy [6, 15]: 60
- Plant response rating, Bromegrass, Downy [6, 16]: 0
- Plant response rating, Bromegrass, Downy [6, 17]: 0
- Plant response rating, Bromegrass, Downy [6, 18]: 0
- Plant response rating, Kochia (kochia (Kochia scoparia); [12]): 90
- Plant response rating, Kochia (kochia (Kochia scoparia); [13]): 95
- Plant response rating, Kochia (kochia (Kochia scoparia); [14]): 100
- Plant response rating, Kochia (kochia (Kochia scoparia); [15]): 100
- Plant response rating, Crabgrass, Large [7, 12]: 75
- Plant response rating, Crabgrass, Large [7, 19]: 98
- Plant response rating, Crabgrass, Large [7, 13]: 85
- Plant response rating, Crabgrass, Large [7, 14]: 90
- Plant response rating, Crabgrass, Large [7, 15]: 95
- Plant response rating, Crabgrass, Large [7, 16]: 80
- Plant response rating, Crabgrass, Large [7, 17]: 85
- Plant response rating, Crabgrass, Large [7, 18]: 98
- Plant response rating, Morningglory [8, 14]: 100
- Plant response rating, Morningglory [8, 15]: 100
- Plant response rating, Morningglory [8, 16]: 0
- Plant response rating, Morningglory [8, 17]: 0
- Plant response rating, Morningglory [8, 18]: 45
- Plant response rating, Ragweed [9, 12]: 55
- Plant response rating, Ragweed [9, 13]: 55
- Plant response rating, Ragweed [9, 14]: 75
- Plant response rating, Ragweed [9, 15]: 75
- Plant response rating, Ragweed [9, 16]: 20
- Plant response rating, Ragweed [9, 17]: 65
- Plant response rating, Ragweed [9, 18]: 70
- Plant response rating, Wheat [10, 12]: 0
- Plant response rating, Wheat [10, 13]: 0
- Plant response rating, Wheat [10, 14]: 0
- Plant response rating, Wheat [10, 15]: 0
- Plant response rating, Wheat [10, 16]: 0
- Plant response rating, Wheat [10, 17]: 0
- Plant response rating, Wheat [10, 18]: 0
- Plant response rating, Oat, Wild (wild oat (Avena fatua); [12]): 5
- Plant response rating, Oat, Wild (wild oat (Avena fatua); [13]): 20
- Plant response rating, Oat, Wild (wild oat (Avena fatua); [14]): 40
- Plant response rating, Oat, Wild (wild oat (Avena fatua); [15]): 45
- Plant response rating, Oat, Wild (wild oat (Avena fatua); [16]): 0
- Plant response rating, Oat, Wild (wild oat (Avena fatua); [17]): 0
- Plant response rating, Oat, Wild (wild oat (Avena fatua); [18]): 0
- Plant response rating, Cupgrass, Woolly [11, 12]: 15
- Plant response rating, Cupgrass, Woolly [11, 19]: 70
- Plant response rating, Cupgrass, Woolly [11, 13]: 45
- Plant response rating, Cupgrass, Woolly [11, 14]: 65
- Plant response rating, Cupgrass, Woolly [11, 15]: 85
- Plant response rating, Cupgrass, Woolly [11, 16]: 0
- Plant response rating, Cupgrass, Woolly [11, 17]: 20
- Plant response rating, Cupgrass, Woolly [11, 18]: 50

Structure (SMILES): CCCn1c(-c2cccc(Br)c2)ncc(C(=O)C2=C(O)CCCC2=O)c1=O [Compound 141]
- Ryegrass, Italian plant response rating (0 to 100 scale) [1, 20]: 0
- Plant response rating, Ryegrass, Italian [1, 21]: 0
- Plant response rating, Ryegrass, Italian [1, 22]: 0
- Plant response rating, Ryegrass, Italian [1, 23]: 5
- Surinam Grass plant response rating (0 to 100 scale) [2, 20]: 65
- Plant response rating, Surinam Grass [2, 21]: 40
- Plant response rating, Surinam Grass [2, 22]: 70
- Plant response rating, Surinam Grass [2, 23]: 75
- Bermudagrass plant response rating (0 to 100 scale) [3, 20]: 85
- Plant response rating, Bermudagrass [3, 21]: 80
- Plant response rating, Bermudagrass [3, 22]: 85
- Plant response rating, Bermudagrass [3, 23]: 90
- Blackgrass plant response rating (0 to 100 scale) [4, 20]: 5
- Plant response rating, Blackgrass [4, 21]: 5
- Plant response rating, Blackgrass [4, 22]: 10
- Plant response rating, Blackgrass [4, 23]: 25
- Cocklebur plant response rating (0 to 100 scale) [5, 20]: 65
- Plant response rating, Cocklebur [5, 21]: 40
- Plant response rating, Cocklebur [5, 22]: 95
- Plant response rating, Cocklebur [5, 23]: 100
- Bromegrass, Downy plant response rating (0 to 100 scale) [6, 20]: 5
- Plant response rating, Bromegrass, Downy [6, 21]: 0
- Plant response rating, Bromegrass, Downy [6, 22]: 10
- Plant response rating, Bromegrass, Downy [6, 23]: 45
- Kochia plant response rating (0 to 100 scale) (kochia (Kochia scoparia); [20]): 65
- Plant response rating, Kochia (kochia (Kochia scoparia); [21]): 20
- Plant response rating, Kochia (kochia (Kochia scoparia); [22]): 85
- Plant response rating, Kochia (kochia (Kochia scoparia); [23]): 90
- Crabgrass, Large plant response rating (0 to 100 scale) [7, 20]: 75
- Plant response rating, Crabgrass, Large [7, 21]: 70
- Plant response rating, Crabgrass, Large [7, 22]: 80
- Plant response rating, Crabgrass, Large [7, 23]: 85
- Morningglory plant response rating (0 to 100 scale) [8, 20]: 60
- Plant response rating, Morningglory [8, 21]: 60
- Plant response rating, Morningglory [8, 22]: 60
- Plant response rating, Morningglory [8, 23]: 65
- Ragweed plant response rating (0 to 100 scale) [9, 20]: 75
- Plant response rating, Ragweed [9, 21]: 65
- Plant response rating, Ragweed [9, 22]: 85
- Plant response rating, Ragweed [9, 23]: 95
- Wheat plant response rating (0 to 100 scale) [10, 20]: 5
- Plant response rating, Wheat [10, 21]: 0
- Plant response rating, Wheat [10, 22]: 5
- Plant response rating, Wheat [10, 23]: 10
- Oat, Wild plant response rating (0 to 100 scale) (wild oat (Avena fatua); [20]): 10
- Plant response rating, Oat, Wild (wild oat (Avena fatua); [21]): 10
- Plant response rating, Oat, Wild (wild oat (Avena fatua); [22]): 15
- Plant response rating, Oat, Wild (wild oat (Avena fatua); [23]): 40
- Cupgrass, Woolly plant response rating (0 to 100 scale) [11, 20]: 65
- Plant response rating, Cupgrass, Woolly [11, 21]: 65
- Plant response rating, Cupgrass, Woolly [11, 22]: 65
- Plant response rating, Cupgrass, Woolly [11, 23]: 70

Reference: patent publication US8952024B2, “Herbicidal pyrimidone derivatives” (E I du Pont de Nemours and Company, priority 2009, dated 2015)
